The values below come from US12679807B2 (MERCK SHARP & DOHME LLC, priority 2020, dated 2026).

In this assay the target is T1, GCS enzyme contained within Golgi preparations isolated from human A375 malignant melanoma skin cells (Homo sapiens, UniProt Q16739).
T1 construct: endogenous levels of GCS enzyme contained within Golgi preparations isolated from human A375 malignant melanoma skin cells; endogenous in cells; host or cells: A375 human malignant melanoma cells (crude Golgi preparation)
T1 sequence (Q16739 1-394): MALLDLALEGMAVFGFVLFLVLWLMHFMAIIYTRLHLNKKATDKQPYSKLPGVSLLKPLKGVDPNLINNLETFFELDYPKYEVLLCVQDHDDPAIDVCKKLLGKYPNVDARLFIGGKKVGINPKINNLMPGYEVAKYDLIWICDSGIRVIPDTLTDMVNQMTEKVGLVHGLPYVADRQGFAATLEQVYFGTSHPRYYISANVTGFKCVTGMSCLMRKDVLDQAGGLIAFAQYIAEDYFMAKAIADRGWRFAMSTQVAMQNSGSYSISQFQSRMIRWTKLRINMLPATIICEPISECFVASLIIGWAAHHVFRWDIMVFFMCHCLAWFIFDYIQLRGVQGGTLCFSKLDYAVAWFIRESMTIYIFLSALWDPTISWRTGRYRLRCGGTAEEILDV
The assay is described as follows: UDP-Glo glucosylceramide synthase biochemical assay. Conditions: crude Golgi preparation from A375 cells; C6 ceramide and UDP-glucose substrates; 20 h incubation at room temperature; UDP detected by luminescence. The text has this:
UDP-Glo™ Glucosylceramide Synthase Biochemical Assay
A UDP-Glo™ glucosylceramide synthase biochemical assay was utilized to evaluate the effect of test compounds on the activity of endogenous levels of GCS enzyme contained within Golgi preparations isolated from human A375 malignant melanoma skin cells. The UDP-Glo™ glucosylceramide synthase assay uses UDP-Glucose as a nucleotide-glycosyl donor and ceramide as substrate acceptor molecules. In the reaction, glucosylceramide synthase (GCS) transfers glucose from UDP-Glucose to ceramide. Glucosylceramide and UDP are released as products.
Using Promega's UDP-Glo™ Glycosyltransferase assay kit (Promega Corporation, Madison, WI, USA (Promega)), GCS activity was indirectly measured by detecting the amount of UDP produced. An aliquot of GCS enzyme (1.5 μg crude golgi preparation, total protein) and titrated test compound were aliquoted to each well and incubated for 30 minutes at room temperature. […] An equivalent volume of substrate mixture was then added to each well. Following a 20 h incubation at room temperature to allow for GCS turnover of substrate, an equal volume of UDP detection reagent (Promega) was added to each well and incubated for an additional 75 minutes at room temperature to simultaneously convert the accumulated UDP product into ATP and generate light in a luciferase reaction. The generated light was detected using a luminometer. […] luminescence values (RLUs) were normalized to mean “min” and “max” effects, as determined on each plate. […] Values for % Emax and EC50 were determined by best-fitting the normalized data to a curve in Activity Base along a four-parameter logistic nonlinear regression (4PL) model (based on the Levenberg-Marquardt algorithm and defined by the equation below):
[formula] where: n is 4 PMin (bottom of the curve); m is 4 PMax (top of the curve); i is IP (inflection point of curve); and p is slope. See Levenberg, K., “A Method for the Solution of Certain Problems in Least Squares”, Quart. Appl. Math. […] Math.
Usually EC50 stands for the concentration needed to bring the measured effect to its halfway point. Low values mean a more potent agent, high ones a less potent agent. In turn, `CC(C)(O)C(C1CC1)N1Cc2cccc(/C=C/c3ccc(F)cc3F)c2C1=O` (racemic) [Compound 4, (R and S)-(E)-2-(1-cyclopropyl-2-hydroxy-2-methylpropyl)-7-(2,4-difluorostyryl)isoindolin-1-one] came in with an EC50 of 290 nM. In turn, `Cc1ccc(-c2ccc(-c3cccc4c3C(=O)N(C(C3CC3)C(C)(C)O)C4)cc2)nn1` (racemic) [Compound 18, (R and S)-2-(1-cyclopropyl-2-hydroxy-2-methylpropyl)-7-(4-(6-methylpyridazin-3-yl)phenyl)isoindolin-1-one] registered a 50% effective concentration (EC50) of 45 nM.

Take `COc1ccc(-c2cccc3c2C(=O)N(C(C2CC2)C(C)(C)O)C3)cc1OC` (racemic) [Compound 19, (R and S)-2-(1-cyclopropyl-2-hydroxy-2-methylpropyl)-7-(3,4-dimethoxyphenyl) isoindolin-1-one]: the EC50 was 28 nM. The figure for `Cc1cc(-c2cccc3c2C(=O)N(C(C2CC2)C(C)(C)O)C3)cc(C)n1` (racemic) [Compound 20, (R and S)-2-(1-cyclopropyl-2-hydroxy-2-methylpropyl)-7-(2,6-dimethylpyridin-4-yl)isoindolin-1-one] is 67 nM. `O=C1c2c(cccc2-c2ccccc2OCC(F)(F)F)CN1CCC1CCC(O)C1` (racemic) [Compound 47, (cis and trans racemic)-2-(2-(3-hydroxycyclopentyl)ethyl)-7-(2-(2,2,2-trifluoroethoxy)phenyl) isoindolin-1-one]: the half-maximal effective concentration (EC50) was 380 nM.

As to `O=C1c2c(cccc2-c2ccc(F)cc2)CN1CCC1CN2CCC1CC2` (racemic) [Compound 52, (R and S)-7-(4-fluorophenyl)-2-(2-(quinuclidin-3-yl)ethyl)isoindolin-1-one], a half-maximal response (EC50) required 160 nM.

Take `Cc1nn(C)c(C)c1-c1cccc2c1C(=O)N(CCC1CN3CCC1CC3)C2` (racemic) [Compound 53, (R and S)-2-(2-(quinuclidin-3-yl)ethyl)-7-(1,3,5-trimethyl-1H-pyrazol-4-yl)isoindolin-1-one]: the response was half-maximal at 48 nM (EC50). On to `Cc1cc(-c2cccc3c2C(=O)N(CCC2CN4CCC2CC4)C3)ccn1` (racemic) [Compound 54, (R and S)-7-(2-methylpyridin-4-yl)-2-(2-(quinuclidin-3-yl)ethyl)isoindolin-1-one], for which the EC50 worked out at 97 nM. `CCOc1ccccc1C(=O)Nc1cccc2c1C(=O)N(C(CO)C1CCC1)C2` (racemic) [Compound 101, (R and S)-N-(2-(1-cyclobutyl-2-hydroxyethyl)-3-oxoisoindolin-4-yl)-2-ethoxybenzamide] came in with an EC50 of 160 nM.

As to `CCOc1ccccc1C(=O)Nc1cccc2c1C(=O)N(C1CN3CCC1CC3)C2` (racemic) [Compound 107, (R and S)-2-Ethoxy-N-(3-oxo-2-(quinuclidin-3-yl)isoindolin-4-yl)benzamide], the EC50 worked out at 550 nM. `CCOc1ccccc1C(=O)Nc1cccc2c1C(=O)N(CC1CC3CCN1CC3)C2` (racemic) [Compound 108, 2-Ethoxy-N-(3-oxo-2-(quinuclidin-2-ylmethyl)isoindolin-4-yl)benzamide] yielded an EC50 of 270 nM.

`CN(C(=O)OC1CN2CCC1CC2)c1cccc2c1C(=O)N(c1ccc(F)cc1)C2` (racemic) [Compound 170, (R and S)-Quinuclidin-3-yl(2-(4-fluorophenyl)-3-oxoisoindolin-4-yl)(methyl)carbamate] yielded a concentration for a half-maximal effect (EC50) of 130 nM. Consider `CC(C)(O)C(C1CC1)N1Cc2ccc(F)c(-c3ccccc3OCC(F)(F)F)c2C1=O` (single isomer, unassigned) [Compound 21, 2-((R or S)-1-cyclopropyl-2-hydroxy-2-methylpropyl)-6-fluoro-7-(2-(2,2,2-trifluoroethoxy)phenyl) isoindolin-1-one], for which the EC50 is 0.91 nM. `CC(C)(O)C(C1CC1)N1Cc2cc(F)cc(-c3ccccc3OCC(F)(F)F)c2C1=O` (single isomer, unassigned) [Compound 23, (R or S)-2-(1-cyclopropyl-2-hydroxy-2-methylpropyl)-5-fluoro-7-(2-(2,2,2-trifluoroethoxy)phenyl) isoindolin-1-one] yielded a concentration giving a half-maximal response (EC50) of 0.41 nM. On to `Cc1nnc(-c2ccc(-c3nccc4c3C(=O)N(C(C3CC3)C(C)(C)O)C4)cc2)o1` (single isomer, unassigned) [Compound 28, (R or S)-2-(1-cyclopropyl-2-hydroxy-2-methylpropyl)-4-(4-(5-methyl-1,3,4-oxadiazol-2-yl)phenyl)-1,2-dihydro-3H-pyrrolo[3,4-c]pyridin-3-one], for which it took 540 nM to reach a half-maximal effect (EC50). Turning to `COc1cc(C#N)cc(-c2nccc3c2C(=O)N(C(C2CC2)C(C)(C)O)C3)c1` (single isomer, unassigned) [Compound 30, (R or S)-3-(2-(1-cyclopropyl-2-hydroxy-2-methylpropyl)-3-oxo-2,3-dihydro-1H-pyrrolo[3,4-c]pyridin-4-yl)-5-methoxybenzonitrile], the EC50 came to 95 nM.

Regarding `Cc1nnc(-c2ccc(-c3cncc4c3C(=O)N(C(C3CC3)C(C)(C)O)C4)cc2)o1` (single isomer, unassigned) [Compound 31, (R or S)-2-(1-cyclopropyl-2-hydroxy-2-methylpropyl)-7-(4-(5-methyl-1,3,4-oxadiazol-2-yl)phenyl)-2,3-dihydro-1H-pyrrolo[3,4-c]pyridin-1-one], the 50% effective concentration (EC50) was found to be 180 nM.

`Cc1nnc(-c2ccc(-c3ccnc4c3C(=O)N(C(C3CC3)C(C)(C)O)C4)cc2)o1` (single isomer, unassigned) [Compound 33, (R or S)-6-(1-cyclopropyl-2-hydroxy-2-methylpropyl)-4-(4-(5-methyl-1,3,4-oxadiazol-2-yl)phenyl)-6,7-dihydro-5H-pyrrolo[3,4-b]pyridin-5-one]: a half-maximal response (EC50) required 350 nM. On to `Cc1nnc(-c2ccc(-c3cc(Cl)cc4c3C(=O)N(C(C3CC3)C(C)(C)O)C4)cc2)o1` (single isomer, unassigned) [Compound 39, (R or S)-5-chloro-2-(1-cyclopropyl-2-hydroxy-2-methylpropyl)-7-(4-(5-methyl-1,3,4-oxadiazol-2-yl)phenyl)isoindolin-1-one], for which the EC50 was 0.8 nM. In turn, `Cn1cc(-c2ccc(-c3cccc4c3C(=O)N(C(C(C)(C)O)C(F)(F)F)C4)cc2)cn1` (single isomer, unassigned) [Compound 43, (R or S)-7-(4-(1-methyl-1H-pyrazol-4-yl)phenyl)-2-(1,1,1-trifluoro-3-hydroxy-3-methylbutan-2-yl)isoindolin-1-one] returned an EC50 of 24 nM. As to `Cc1nnc(-c2ccc(-c3cccc4c3C(=O)N(C(C3CC3)C3(O)COC3)C4)cc2)o1` (single isomer, unassigned) [Compound 51, (R or S)-2-(cyclopropyl(3-hydroxyoxetan-3-yl)methyl)-7-(4-(5-methyl-1,3,4-oxadiazol-2-yl)phenyl)isoindolin-1-one], a half-maximal response (EC50) required 5.9 nM. Take `Cc1nnc(-c2ccc(-c3cccc4c3C(=O)N([C@H](C3CC3)C(C)(C)O)C4C)cc2)o1` (single isomer, unassigned) [Compound 62, (R or S)-2-((R)-1-Cyclopropyl-2-hydroxy-2-methylpropyl)-3-methyl-7-(4-(5-methyl-1,3,4-oxadiazol-2-yl)phenyl)isoindolin-1-one]: the concentration for a half-maximal effect (EC50) came out at 53 nM. `Cc1ccc(F)c(C(=O)Nc2cccc3c2C(=O)N(C(C2CC2)C(C)(C)O)C3)c1Cl` (single isomer, unassigned) [Compound 110, (R or S)-2-chloro-N-(2-(1-cyclopropyl-2-hydroxy-2-methylpropyl)-3-oxoisoindolin-4-yl)-6-fluoro-3-methylbenzamide] came in with an EC50 of 0.21 nM. As for `Cc1ccc(Cl)c(C(=O)Nc2cccc3c2C(=O)N(C(C2CC2)C(C)(C)O)C3)c1F` (single isomer, unassigned) [Compound 111, (R or S)-6-chloro-N-(2-(1-cyclopropyl-2-hydroxy-2-methylpropyl)-3-oxoisoindolin-4-yl)-2-fluoro-3-methylbenzamide], the figure is 0.26 nM.
